Experiment in all cases: direct labeling of recombinantly expressed proteins by gel-based ABPP (WT vs lysine mutant)
What all share (format): binding

For one test, the target named is T1, ADK (Homo sapiens, UniProt P55263).
T1 construct: expressed in transfected cells; host or cells: HEK 293T
The conditions noted are these: ADK K88, KR mutant; 10 μM probe, 1 h.

The target of another test is T2, HK1 (Homo sapiens, UniProt P19367).
T2 construct: Flag; expressed in transfected cells; host or cells: HEK 293T
T2 sequence (P19367 1-917): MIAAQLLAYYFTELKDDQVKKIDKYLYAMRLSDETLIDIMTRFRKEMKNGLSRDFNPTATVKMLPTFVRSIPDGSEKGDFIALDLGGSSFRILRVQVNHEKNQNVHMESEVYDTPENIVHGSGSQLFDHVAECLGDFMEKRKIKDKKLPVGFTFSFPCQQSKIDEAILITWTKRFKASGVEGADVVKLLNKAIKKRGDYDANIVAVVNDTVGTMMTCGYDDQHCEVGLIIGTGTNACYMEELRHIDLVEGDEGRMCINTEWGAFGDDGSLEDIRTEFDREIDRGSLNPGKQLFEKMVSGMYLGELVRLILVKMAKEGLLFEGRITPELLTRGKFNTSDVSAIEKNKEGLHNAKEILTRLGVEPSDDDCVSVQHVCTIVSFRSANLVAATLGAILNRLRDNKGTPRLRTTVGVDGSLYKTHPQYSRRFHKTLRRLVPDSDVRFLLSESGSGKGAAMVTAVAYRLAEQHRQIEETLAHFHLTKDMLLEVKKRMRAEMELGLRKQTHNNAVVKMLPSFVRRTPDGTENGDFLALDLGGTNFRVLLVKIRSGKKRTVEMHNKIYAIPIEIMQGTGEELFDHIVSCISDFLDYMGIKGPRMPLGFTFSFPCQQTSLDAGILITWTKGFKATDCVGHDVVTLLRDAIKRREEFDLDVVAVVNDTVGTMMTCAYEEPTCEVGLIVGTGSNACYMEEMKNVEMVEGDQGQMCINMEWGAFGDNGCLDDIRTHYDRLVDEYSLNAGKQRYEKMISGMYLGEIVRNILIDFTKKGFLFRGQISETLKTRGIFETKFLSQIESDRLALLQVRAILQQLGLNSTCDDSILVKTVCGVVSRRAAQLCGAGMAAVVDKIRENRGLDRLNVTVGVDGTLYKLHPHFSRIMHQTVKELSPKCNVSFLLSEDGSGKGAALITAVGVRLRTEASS
The conditions noted are these: HK1 K510, KR mutant; 10 μM probe, 1 h.

The next test addresses T3, CARM1 (Mus musculus, UniProt Q9WVG6).
T3 construct: FLAG; expressed in transfected cells; host or cells: HEK 293T
T3 sequence (Q9WVG6 1-608): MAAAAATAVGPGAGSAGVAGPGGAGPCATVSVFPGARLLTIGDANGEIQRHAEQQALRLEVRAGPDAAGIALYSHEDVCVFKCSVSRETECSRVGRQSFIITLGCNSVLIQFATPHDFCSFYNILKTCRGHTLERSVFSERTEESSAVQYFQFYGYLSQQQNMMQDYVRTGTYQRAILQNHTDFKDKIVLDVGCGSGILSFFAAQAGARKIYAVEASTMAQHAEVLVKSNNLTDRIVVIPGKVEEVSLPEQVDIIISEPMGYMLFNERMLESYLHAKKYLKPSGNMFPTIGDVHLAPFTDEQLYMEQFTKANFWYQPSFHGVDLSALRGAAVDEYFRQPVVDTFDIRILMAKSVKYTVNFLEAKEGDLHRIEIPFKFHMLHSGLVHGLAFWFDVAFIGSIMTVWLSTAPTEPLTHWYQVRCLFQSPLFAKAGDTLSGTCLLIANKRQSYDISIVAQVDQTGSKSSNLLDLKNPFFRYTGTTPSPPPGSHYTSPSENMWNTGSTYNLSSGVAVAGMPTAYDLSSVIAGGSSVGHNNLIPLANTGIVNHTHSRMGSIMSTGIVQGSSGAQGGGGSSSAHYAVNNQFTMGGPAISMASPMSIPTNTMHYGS
The conditions noted are these: CARM1 K241, KR mutant; 10 μM probe, 1 h.

For a further test, the target named is T4, G6PD (Homo sapiens, UniProt P11413).
T4 construct: expressed in transfected cells; host or cells: HEK 293T
T4 sequence (P11413 whole entry): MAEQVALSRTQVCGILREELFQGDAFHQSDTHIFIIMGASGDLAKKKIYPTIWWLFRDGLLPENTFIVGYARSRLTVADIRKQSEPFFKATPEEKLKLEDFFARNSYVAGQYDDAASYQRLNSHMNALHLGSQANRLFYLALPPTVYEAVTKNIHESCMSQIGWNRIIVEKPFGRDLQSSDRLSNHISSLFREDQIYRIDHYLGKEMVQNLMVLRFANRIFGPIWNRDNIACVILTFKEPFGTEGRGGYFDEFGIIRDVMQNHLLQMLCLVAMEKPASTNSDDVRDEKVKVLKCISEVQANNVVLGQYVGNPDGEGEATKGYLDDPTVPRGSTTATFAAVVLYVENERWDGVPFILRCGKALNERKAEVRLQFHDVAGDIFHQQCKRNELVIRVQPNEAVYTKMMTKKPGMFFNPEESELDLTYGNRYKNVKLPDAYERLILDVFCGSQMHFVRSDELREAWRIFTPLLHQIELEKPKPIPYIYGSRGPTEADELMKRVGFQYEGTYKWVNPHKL
Conditions: G6PD K171, KR mutant; 10 μM probe, 1 h.

These results are taken from patent US20210255193A1, “LYSINE REACTIVE PROBES AND USES THEREOF” (The Scripps Research Institute, priority 2017, published 2021).

T1 sequence (P55263 whole entry): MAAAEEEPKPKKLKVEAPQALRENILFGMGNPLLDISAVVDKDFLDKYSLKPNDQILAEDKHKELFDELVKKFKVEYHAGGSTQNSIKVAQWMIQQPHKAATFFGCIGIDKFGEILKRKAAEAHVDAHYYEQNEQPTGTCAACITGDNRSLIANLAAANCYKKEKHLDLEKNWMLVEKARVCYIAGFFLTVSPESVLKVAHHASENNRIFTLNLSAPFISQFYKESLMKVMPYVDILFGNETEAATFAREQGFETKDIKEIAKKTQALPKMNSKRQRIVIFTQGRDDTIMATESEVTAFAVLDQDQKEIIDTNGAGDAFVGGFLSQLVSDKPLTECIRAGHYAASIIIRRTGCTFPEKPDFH

Turning to `C#CCCC(=O)Oc1c(F)c(F)c(S(=O)(=O)[O-])c(F)c1F.[Na+]` [probe 1, reference compound], the “labeling of WT vs mutant protein by probe” value at ADK was “PD (the WT labeled more than the mutant (>2x difference quantified))”; on HK1, “PD (the WT labeled more than the mutant (>2x difference quantified))”; at CARM1 it was “HD (the WT labeled more than the mutant (>4x difference quantified))”; on G6PD, “ND (the WT did not label more than the mutant (<2x difference quantified))”.
On to `C#CCCC(=O)Oc1c(F)c(F)c(F)c(F)c1F` [probe 6, Pentafluorophenyl 4-pentynoate], for which the “labeling of WT vs mutant protein by probe” value at HK1 was “HD (the WT labeled more than the mutant (>4x difference quantified))”; at CARM1, “ND (the WT did not label more than the mutant (<2x difference quantified))”; on G6PD it was “ND (the WT did not label more than the mutant (<2x difference quantified))”.
For the molecule `C#Cc1ccc(C(=O)Oc2ccccc2[N+](=O)[O-])cc1` [probe 10, 2-Nitrophenyl 4-ethynylbenzoate], the “labeling of WT vs mutant protein by probe” value at ADK is “HD (the WT labeled more than the mutant (>4x difference quantified))”.
For `C#Cc1ccc(C(=O)Oc2c(F)c(F)cc(F)c2F)cc1` [probe 12, 2,3,5,6-Tetrafluorophenyl 4-ethynylbenzoate], the “labeling of WT vs mutant protein by probe” value on ADK is “HD (the WT labeled more than the mutant (>4x difference quantified))”; on HK1, “ND (the WT did not label more than the mutant (<2x difference quantified))”; at CARM1, “ND (the WT did not label more than the mutant (<2x difference quantified))”; on G6PD, “ND (the WT did not label more than the mutant (<2x difference quantified))”.
Regarding `C#Cc1ccc(C(=O)Oc2c(F)c(F)c(F)c(F)c2F)cc1` [probe 13, Pentafluorophenyl 4-ethynylbenzoate], the “labeling of WT vs mutant protein by probe” value at ADK is recorded as “HD (the WT labeled more than the mutant (>4x difference quantified))”; on HK1, “ND (the WT did not label more than the mutant (<2x difference quantified))”; at CARM1, “ND (the WT did not label more than the mutant (<2x difference quantified))”; at G6PD, “ND (the WT did not label more than the mutant (<2x difference quantified))”.
For `Cc1cc(C)n2c1C=C1C=CC(CCC(=O)Oc3c(F)c(F)c(S(=O)(=O)[O-])c(F)c3F)=[N+]1[B-]2(F)F.[Na+]` [probe 18, reference compound], the “labeling of WT vs mutant protein by probe” value is listed as “PD (the WT labeled more than the mutant (>2x difference quantified))” on ADK, “ND (the WT did not label more than the mutant (<2x difference quantified))” at HK1, “PD (the WT labeled more than the mutant (>2x difference quantified))” at CARM1 and “NL (labelling of the WT protein was not detected by gel (intensity for WT less than 2x background))” at G6PD.
